Earlier results in patent publication US12594266B2, “Triterpenoid antifungals for the treatment or prevention of Pneumocystis spp. pneumonia” (priority 2019, dated 2026).
Where two headings read alike, the source gives them in different places. *1 amine or outer side, *2 acyl side, *3 side chain or, on linkers, in order; H or OH if unused. Where a SMILES comes first, the peptide text is derived from it. Bridges are numbered along the chain shown (N, C = ends). [ ]: non-standard residue; d: D form. The star is where a group is joined. hTyr(3S-OH,4S-OH,3'-OSO3H) = N[C@H](C(=O)O)[C@H](O)[C@@H](O)c1ccc(O)c(OS(=O)(=O)O)c1; Orn(4R-OH,5R-OH) = O=C([C@H](C[C@@H](O)[C@@H](O)N[*:3])N[*:1])[*:2]; Pro(3S-OH,4S-Me) = C[C@H]1CN[C@H](C(=O)O)[C@H]1O; X1 = CCCCCOc1ccc(-c2cc(-c3ccc(C(=O)*)cc3)no2)cc1; Gln(3R-OH) = NC(=O)C[C@@H](O)[C@H](N)C(=O)O; Hyp = O=C(O)[C@@H]1C[C@@H](O)CN1

Experiments:
[1] = total radioactivity, 15 mg/kg oral, male pigmented Long-Evans rats, cited from earlier work
[2] = tested on: Pneumocystis spp.; settings: cited from earlier work; for relative effectiveness among echinocandins: murine PCP

Structure (SMILES): CC(C)[C@@H](C)[C@@]1(C)CC[C@]2(C)[C@H]3CC[C@@H]4[C@@]5(COC[C@]4(C)[C@@H](OC[C@](C)(N)C(C)(C)C)[C@H](n4ncnc4-c4ccncc4)C5)C3=CC[C@@]2(C)[C@@H]1C(=O)O [[^14C]-SCY-078]
- AUCall ([1]; Adrenal gland): 321.126 μg equiv*h/g
- Tissue:Blood AUC Ratio ([1]; Adrenal gland): 48.431
- AUCall ([1]; Blood (cardiac)): 6.631 μg equiv*h/g
- Tissue:Blood AUC Ratio ([1]; Blood (cardiac)): 1.000
- AUCall ([1]; Bone marrow (femur)): 238.388 μg equiv*h/g
- Tissue:Blood AUC Ratio ([1]; Bone marrow (femur)): 35.953
- AUCall ([1]; Bone): 9.022 μg equiv*h/g
- Tissue:Blood AUC Ratio ([1]; Bone): 1.361
- AUCall ([1]; Brain (cerebrum)): 0.727 μg equiv*h/g
- Tissue:Blood AUC Ratio ([1]; Brain (cerebrum)): 0.110
- AUCall ([1]; Cecum): 83.542 μg equiv*h/g
- Tissue:Blood AUC Ratio ([1]; Cecum): 12.600
- AUCall ([1]; Epididymis): 75.355 μg equiv*h/g
- Tissue:Blood AUC Ratio ([1]; Epididymis): 11.365
- AUCall ([1]; Esophagus): 41.430 μg equiv*h/g
- Tissue:Blood AUC Ratio ([1]; Esophagus): 6.248
- AUCall ([1]; Exorbital gland): 523.676 μg equiv*h/g
- Tissue:Blood AUC Ratio ([1]; Exorbital gland): 78.980
- AUCall ([1]; Eye (lens)): 0.084 μg equiv*h/g
- Tissue:Blood AUC Ratio ([1]; Eye (lens)): 0.013
- AUCall ([1]; Eye (uvea)): 777.035 μg equiv*h/g
- Tissue:Blood AUC Ratio ([1]; Eye (uvea)): 117.191
- AUCall ([1]; Heart (myocardium)): 66.558 μg equiv*h/g
- Tissue:Blood AUC Ratio ([1]; Heart (myocardium)): 10.038
- AUCall ([1]; Kidney (cortex)): 165.880 μg equiv*h/g
- Tissue:Blood AUC Ratio ([1]; Kidney (cortex)): 25.018
- AUCall ([1]; Kidney (medulla)): 136.610 μg equiv*h/g
- Tissue:Blood AUC Ratio ([1]; Kidney (medulla)): 20.603
- AUCall ([1]; Large intestine): 57.682 μg equiv*h/g
- Tissue:Blood AUC Ratio ([1]; Large intestine): 8.727
- AUCall ([1]; Liver): 374.517 μg equiv*h/g
- Tissue:Blood AUC Ratio ([1]; Liver): 56.484
- AUCall ([1]; Lung): 175.593 μg equiv*h/g
- Tissue:Blood AUC Ratio ([1]; Lung): 26.483
- AUCall ([1]; Lymph node): 251.036 μg equiv*h/g
- Tissue:Blood AUC Ratio ([1]; Lymph node): 37.861
- AUCall ([1]; Oral mucosa): 36.782 μg equiv*h/g
- Tissue:Blood AUC Ratio ([1]; Oral mucosa): 5.547
- AUCall ([1]; Pancreas): 110.455 μg equiv*h/g
- Tissue:Blood AUC Ratio ([1]; Pancreas): 16.659
- AUCall ([1]; Pituitary): 640-809 μg equiv*h/g
- Tissue:Blood AUC Ratio ([1]; Pituitary): 96.645
- AUCall ([1]; Prostate gland): 61.301 μg equiv*h/g
- Tissue:Blood AUC Ratio ([1]; Prostate gland): 9.245
- AUCall ([1]; Salivary gland): 149.193 μg equiv*h/g
- Tissue:Blood AUC Ratio ([1]; Salivary gland): 22.501
- AUCall ([1]; Seminal vesicle): 26.827 μg equiv*h/g
- Tissue:Blood AUC Ratio ([1]; Seminal vesicle): 4.046
- AUCall ([1]; Skeletal muscle): 28.304 μg equiv*h/g
- Tissue:Blood AUC Ratio ([1]; Skeletal muscle): 4.269
- AUCall ([1]; Skin (non-pigmented)): 74.884 μg equiv*h/g
- Tissue:Blood AUC Ratio ([1]; Skin (non-pigmented)): 11.294
- AUCall ([1]; Skin (pigmented)): 110.249 μg equiv*h/g
- Tissue:Blood AUC Ratio ([1]; Skin (pigmented)): 16.627
- AUCall ([1]; Small intestine): 141.607 μg equiv*h/g
- Tissue:Blood AUC Ratio ([1]; Small intestine): 21.357
- AUCall ([1]; Spleen): 507.638 μg equiv*h/g
- Tissue:Blood AUC Ratio ([1]; Spleen): 75.561
- AUCall ([1]; Stomach (gastric mucosa)): 181.074 μg equiv*h/g
- Tissue:Blood AUC Ratio ([1]; Stomach (gastric mucosa)): 27.309
- AUCall ([1]; Testis): 64.972 μg equiv*h/g
- Tissue:Blood AUC Ratio ([1]; Testis): 9.799
- AUCall ([1]; Thymus): 195.608 μg equiv*h/g
- Tissue:Blood AUC Ratio ([1]; Thymus): 29.501
- AUCall ([1]; Thyroid): 291.187 μg equiv*h/g
- Tissue:Blood AUC Ratio ([1]; Thyroid): 43.916
- AUCall ([1]; Urinary bladder): 45.955 μg equiv*h/g
- Tissue:Blood AUC Ratio ([1]; Urinary bladder): 6.931

Structure (SMILES): CC[C@H](C)C[C@H](C)CCCCCCCCC(=O)N[C@H]1C[C@@H](O)[C@@H](NCCN)NC(=O)[C@@H]2[C@@H](O)CCN2C(=O)[C@H]([C@H](O)CCN)NC(=O)[C@H]([C@H](O)[C@@H](O)c2ccc(O)cc2)NC(=O)[C@@H]2C[C@@H](O)CN2C(=O)[C@H]([C@@H](C)O)NC1=O [caspofungin]
- relative effectiveness among echinocandins [2]: most effective

Structure (SMILES): CCCCCOc1ccc(-c2cc(-c3ccc(C(=O)N[C@H]4C[C@@H](O)[C@@H](O)NC(=O)[C@@H]5[C@@H](O)[C@@H](C)CN5C(=O)[C@H]([C@H](O)CC(N)=O)NC(=O)[C@H]([C@H](O)[C@@H](O)c5ccc(O)c(OS(=O)(=O)O)c5)NC(=O)[C@@H]5C[C@@H](O)CN5C(=O)[C@H]([C@@H](C)O)NC4=O)cc3)no2)cc1 [micafungin] (X1-[Orn(4R-OH,5R-OH)]T[Hyp][hTyr(3S-OH,4S-OH,3'-OSO3H)][Gln(3R-OH)][Pro(3S-OH,4S-Me)]; lactam 1-C)
- trophic burden versus untreated control mice ([2]; any dose, intraperitoneal, 3 weeks): no significant reduction
- relative effectiveness among echinocandins [2]: least effective
